From publication PMC7746380, “In vitro and in vivo efficacy of the novel oral proteasome inhibitor NNU546 in multiple myeloma” (Aging (Albany NY), 2020)

Legend:
ARH77 xenograft = test: ARH77 MM xenograft model; assay type: in vivo, mice; conditions: BIW, 3 weeks
Description: For the ARH77 xenograft model, female BNX mice (n=5; 5-7 weeks old; Shanghai Sippr-BK laboratory Animal Co. Ltd.) were implanted with 5×10^6 of ARH77 cells in Matrigel (1:1) and randomized into treatment and vehicle groups when the mean tumor volume (MTV) reached 100-150 mm^3. For the intravenous treatment groups, mice were treated with bortezomib (1 mg/kg, BIW) or NNU219 (0.4 mg/kg, BIW), respectively. For i.g. administration, mice were treated with ixazomib (5 mg/kg, BIW) and NNU546 (1 mg/kg, QD) or NNU546 (2 mg/kg, QOD). Tumors were measured twice a week and the tumor volume was calculated using the following formula: 0.5 × (length × width^2).

[1] = test system: NF-κB/luciferase 293T cells; test: NF-κB inhibition assay (luciferase reporter, TNF-α stimulated); assay type: cell-based; conditions: Homo sapiens, HEK-293T; 6 h pre-treatment, then 10 ng/ml TNF-α for 18 h; read from Figure 3K
Description: To determine the inhibition of NF-κB signaling, the transfected NF-κB/luciferase 293T cells were pre-treated with various concentrations of NNU219 or bortezomib for 6 h and then stimulated with 10 ng/ml of tumor necrosis factor-α (TNF-α) for 18 h, followed by measurement of luciferase activity by using the Dual-Luciferase® Reporter Assay System (Promega Corp., Madison, WI, USA) as previously described.

[2] = test system: 20S proteasome (CT-L, C-L, T-L activities) in whole blood; test: In vivo proteasome activity in whole blood; set-up: species or system mice; conditions: 48 h after dose
Description: For the cellular proteasome activity assays, cells were treated with concentrations of compounds (0-10 μM) for 1 h at 37 °C and the CT-L, C-L and T-L activities of proteasome were evaluated by using the Proteasome-Glo assay reagents (Promega Corp. Madison, WI, USA) according to the manufacturer's protocol. For determination of recovery of cellular proteasome activity, cells were treated with the compounds for 1 h and then washed thrice in PBS to remove the compounds. Cells were incubated in fresh medium for an additional 4, 24 or 72 h at 37 °C. […] Blood samples were collected after 1 h, and whole blood cells were then analyzed for proteasome activity as previously described.
For the pharmacodynamic study, female BNX mice (n=6; 5-7 weeks old; Shanghai Sippr-BK laboratory Animal Co. Ltd.) were given one single dose of NNU219 (0.4 mg/kg) and bortezomib (1 mg/kg) by i.v. administrations or NNU546 (2-15 mg/kg) by oral gavage. […] Tissue homogenates and cell lysates were removed by centrifugation and supernatants were collected for protein quantitation and proteasome activity determination using the Proteasome-Glo assay reagents as described above.

[3] = Microsomal stability, human liver microsomes; assay type: in vitro ADME; conditions: pooled human liver microsomes, 1 μM compound, 37 °C
Description: (§1) Microsomal stabilities were determined by incubating 1 μM of the test compounds with rat, mouse, dog, monkey or human liver microsomes (Xenotech, USA) for different durations at 37 °C. Clearance and T1/2 were calculated by measuring the remaining percentage of test compounds at different time-points. Liquid chromatography/mass spectrometry (Xevo Quadrupole Time-of-Flight Mass Spectrometer; Waters) and an ACQUITY High-Performance Liquid Chromatography (HPLC) system ([…]) were used to determine the relative peak area for the parent compounds.
(§2) Antipyrine and testosterone (5 μM each)
(§3) were used as positive and negative controls, respectively. Abbreviations: t = time; CLint, intrinsic clearance. […]

[4] = Microsomal stability, mouse liver microsomes; assay type: in vitro ADME; conditions: pooled mouse liver microsomes, 1 μM compound, 37 °C
Description: as §1, §2, §3

[5] = Microsomal stability, rat liver microsomes; assay type: in vitro ADME; conditions: pooled rat liver microsomes, 1 μM compound, 37 °C
Description: as §1, §2, §3

[6] = test system: patient-derived primary human MM xenografts; test: Patient-derived MM xenograft (PDX) model in NCG mice; assay type: in vivo; conditions: 5 mg/kg i.g., BIW, 3 weeks
Source text: The PDX model was generated from biopsies of patients with MM brain manifestation at the Department of Hematology, the 1st Affiliated Hospital of Nanjing Medical University. Freshly excised tumor tissue specimens were washed and cut into 2.5×2.5×2.5 mm^3 pieces in antibiotic-containing L-15 medium. Under anesthesia with pentobarbital, 4-6 weeks-old male NCG mice (n=6; Model Animal Research Center of Nanjing University) were subcutaneously transplanted with the tumor pieces. Tumors were harvested when their size reached 500 mm^3 (Px1 xenografts). Tumor tissue from Px1 xenograft mice was divided into small pieces and then implanted again subcutaneously as described above to obtain Px2 xenografts. This process was once more and the experiments were performed on Px3 xenograft mice, which were randomized into treatment groups when tumor volume reached 100-150 mm^3. Mice were orally administered with ixazomib (5 mg/kg, i.g., BIW) or NNU546 (1 mg/kg, QD). Tumors were measured twice a week.

SMILES | reduction of tumor volume (ARH77 xenograft; 1 mg/kg i.v.) [%] | IC50 [1] [µM] | proteasome inhibition in whole blood at 48 h [2] | CLint scaled at 1 μM [3] [mL/min/kg] | half-life at 1 μM [3] [min] | CLint scaled at 1 μM [4] [mL/min/kg] | half-life at 1 μM [4] [min] | CLint scaled at 1 μM [5] [mL/min/kg] | half-life at 1 μM [5] [min] | reduction of tumor progression (ARH77 xenograft; 5 mg/kg i.g.) [%] | reduction of tumor volume [6] [%]
CC(C)C[C@H](NC(=O)[C@H](Cc1ccccc1)NC(=O)c1cnccn1)B(O)O [bortezomib] | 24.9 | 0.0188 | only minimal or no inhibition | 58.3 | 21.4 | 509 | 10.7 | 200 | 12.4 |  | 
CC(C)C[C@H](NC(=O)CNC(=O)c1cc(Cl)ccc1Cl)B(O)O [ixazomib] |  |  |  |  |  |  |  |  |  | 36.3 | 30.5
